From EP4786485A1, “STRAIGHT CHAIN PEPTIDE COMPOUND AND USE THEREOF” (Shenzhen Zhongge Biological Technology Co., Ltd., priority 2023, dated 2026)
Where a SMILES comes first, the peptide text is derived from it. [ ]: non-standard residue; d: D form. The star is where a group is joined. Biotin = O=C1N[C@H]2[C@H](CS[C@H]2CCCCC(=O)*)N1; Lys(Me3) = C[N+](C)(C)CCCC[C@H](N)C(=O)O; Phe(4-Me) = Cc1ccc(C[C@H](N)C(=O)O)cc1; Palmitoyl = CCCCCCCCCCCCCCCC(=O)*; Hyp = O=C(O)[C@@H]1C[C@@H](O)CN1

Assays:
Assay type in all cases: cell-based, Human
[1] = system: Collagen I (type I collagen); experiment: ELISA: effect of increasing the content of Collagen I in fibroblasts; design: Effect of increasing the content of Collagen I in the fibroblasts: unit not given here; settings: 1 µM, 24 h; for Effect of increasing the content of Collagen I in the fibroblasts: human-derived fibroblasts, ELISA, blank control BC = 35.6; for increase in the content of type I collagen (Collagen I): in words, compared to the BC, fibroblasts
Experimental: (§1) B. Effects of increasing the contents of Collagen I (type I collagen), hyaluronic acid (HA), and Elastin (ELN) in fibroblasts
(§2) Test materials: Human-derived fibroblasts (Guangdong BioCell Biotechnology Co., Ltd., Lot No. Fb20081902), DMEM culture medium (Gibco, 23042301, expiration date 230522), PBS (Solarbio, P1010), TGF-β1 (Peprotech, 230504), Collagen I ELISA Kit (Cusabio, B21025824), Elastin ELISA Kit (Abcam, GR3446070-2), HA ELISA Kit (RD, P325066), CO2 incubator (Thermo, 150I), super-clean bench (AIRTECH, SW-CJ-1F), and microplate reader (BioTek, Epoch).
(§3) Test methods: • 1) Inoculation: After cell resuscitation, the cells were inoculated into 6-well plates when the plating rate reached around 60%, and were incubated overnight in an incubator (37°C, 5% CO2). • 2) Formulation of solutions: The linear peptide compounds in the sample groups, and PC2 (Biotinoyl-GHK, [drawing 69] ) and PC3 ( [drawing 70] ) in the positive control group were all at the concentration of 1 µM, and the test substance working solutions were formulated. • 3) Administration: When the cell plating rate in the 6-well plates reached 40% to 60%, administration was performed at 2 mL per well. Three duplicate wells were set for each group. Incubation was performed in an incubator (37°C, 5% CO2) for 24 h. • 4) ELISA assay: The ELISA assays were performed according to the instructions of the respective ELISA kits, with the detection indicators being effect of increasing the content of Collagen I in the fibroblasts, effect of increasing the content of HA in the fibroblasts, and effect of increasing the content of Elastin in the fibroblasts, respectively.

hyaluronic acid (HA) = experiment: ELISA: effect of increasing the content of HA in fibroblasts; design: Effect of increasing the content of HA in the fibroblasts: unit not given here; settings: 1 µM, 24 h; for Effect of increasing the content of HA in the fibroblasts: human-derived fibroblasts, ELISA, blank control BC = 1402.44; for increase in the content of hyaluronic acid (HA): in words, compared to the BC, fibroblasts
Experimental: as §1, §2, §3

Elastin (ELN) = experiment: ELISA: effect of increasing the content of Elastin in fibroblasts; design: Effect of increasing the content of Elastin in the fibroblasts: unit not given here; settings: 1 µM; for Effect of increasing the content of Elastin in the fibroblasts: 24 h incubation, ELISA, blank control (BC) 756.52; for increase in the content of Elastin: in words, compared to the BC, 24 h, fibroblasts
Experimental: as §1, §2, §3

For `CNC(=O)[C@H](Cc1ccc(C)cc1)NC(=O)CNC(=O)[C@H](CCCCN)NC(=O)[C@H](Cc1c[nH]cn1)NC(=O)CNC(=O)[C@H](CCCC[N+](C)(C)C)NC(C)=O` [compound 349] (Ac-[Lys(Me3)]GHKG[Phe(4-Me)]-NHMe), the “Effect of increasing the content of Collagen I in the fibroblasts” value [1] was 90.16, the “increase in the content of type I collagen (Collagen I)” value (“increase in the content … (Collagen I)” for short) [1] was “significant increase” and the “Effect of increasing the content of HA in the fibroblasts” value (shortened to “Effect of increasing the content of HA”) (hyaluronic acid (HA)) was 1794.21. The “increase in the content of hyaluronic acid (HA)” value (from here on “increase in the content … (HA)”) (hyaluronic acid (HA)) was “significant increase”, the “Effect of increasing the content of Elastin in the fibroblasts” value (Elastin (ELN)) was 836 and the “increase in the content of Elastin” value (Elastin (ELN)) was “significant increase”.
For `CNC(=O)[C@H](CCCC[N+](C)(C)C)NC(=O)CNC(=O)[C@H](Cc1c[nH]cn1)NC(=O)[C@H](CCCCN)NC(=O)[C@H](Cc1ccc(C)cc1)NC(C)=O` [compound 358] (Ac-[Phe(4-Me)]KHG[Lys(Me3)]-NHMe), the “Effect of increasing the content of Collagen I in the fibroblasts” value [1] was 81.27, the “increase in the content … (Collagen I)” value [1] was “significant increase” and the “Effect of increasing the content of HA” value (hyaluronic acid (HA)) was 1913.78. For the same compound, the “increase in the content … (HA)” value (hyaluronic acid (HA)) was “significant increase”, the “Effect of increasing the content of Elastin in the fibroblasts” value (Elastin (ELN)) was 1133.42 and the “increase in the content of Elastin” value (Elastin (ELN)) was “significant increase”.
For `CNC(=O)[C@H](Cc1ccc(C)cc1)NC(=O)[C@H](CCCCNC(=O)[C@@H]1C[C@@H](O)CN1)NC(=O)[C@H](Cc1c[nH]cn1)NC(=O)CNC(=O)[C@H](CCCC[N+](C)(C)C)NC(C)=O` [compound 373] (Ac-[Lys(Me3)]GHK(Hyp)[Phe(4-Me)]-NHMe), the “Effect of increasing the content of Collagen I in the fibroblasts” value [1] was 57.84, the “increase in the content … (Collagen I)” value [1] was “significant increase” and the “Effect of increasing the content of HA” value (hyaluronic acid (HA)) was 2472.81. For the same compound, the “increase in the content … (HA)” value (hyaluronic acid (HA)) was “significant increase”, the “Effect of increasing the content of Elastin in the fibroblasts” value (Elastin (ELN)) was 843.14 and the “increase in the content of Elastin” value (Elastin (ELN)) was “significant increase”.
`CCCCCCCCCCCCCCCC(=O)N[C@@H](CCCC[N+](C)(C)C)C(=O)NCC(=O)N[C@@H](Cc1c[nH]cn1)C(=O)N[C@@H](CCCCNC(=O)[C@@H]1CCCN1)C(=O)N[C@@H](Cc1ccc(C)cc1)C(=O)O` [compound 397] (Palmitoyl-[Lys(Me3)]GHK(Pro)[Phe(4-Me)]-OH) was tested, and the “Effect of increasing the content of Collagen I in the fibroblasts” value [1] was 54.45, the “increase in the content … (Collagen I)” value [1] was “significant increase” and the “Effect of increasing the content of HA” value (hyaluronic acid (HA)) was 1832.87. For the same compound, the “increase in the content … (HA)” value (hyaluronic acid (HA)) was “significant increase”, the “Effect of increasing the content of Elastin in the fibroblasts” value (Elastin (ELN)) was 1115.1 and the “increase in the content of Elastin” value (Elastin (ELN)) was “significant increase”.
With `CCCCCCCCCCCCCCCC(=O)N[C@@H](CCCC[N+](C)(C)C)C(=O)NCC(=O)N[C@@H](Cc1c[nH]cn1)C(=O)N[C@@H](CCCCNC(=O)[C@@H]1C[C@@H](O)CN1)C(=O)N[C@@H](Cc1ccc(C)cc1)C(=O)O` [compound 403] (Palmitoyl-[Lys(Me3)]GHK(Hyp)[Phe(4-Me)]-OH) the “Effect of increasing the content of Collagen I in the fibroblasts” value [1] was 97.51, the “increase in the content … (Collagen I)” value [1] was “significant increase” and the “Effect of increasing the content of HA” value (hyaluronic acid (HA)) was 2688.75. The “increase in the content … (HA)” value (hyaluronic acid (HA)) was “significant increase”, the “Effect of increasing the content of Elastin in the fibroblasts” value (Elastin (ELN)) was 928.61 and the “increase in the content of Elastin” value (Elastin (ELN)) was “significant increase”.
`Cc1ccc(C[C@H](NC(=O)[C@H](CCCCNC(=O)[C@@H]2C[C@@H](O)CN2)NC(=O)[C@H](Cc2c[nH]cn2)NC(=O)CNC(=O)[C@H](CCCC[N+](C)(C)C)NC(=O)CCCC[C@@H]2SC[C@@H]3NC(=O)N[C@@H]32)C(N)=O)cc1` [compound 406] (Biotin-[Lys(Me3)]GHK(Hyp)[Phe(4-Me)]-NH2) was tested, and the “Effect of increasing the content of Collagen I in the fibroblasts” value [1] was 88.9, the “increase in the content … (Collagen I)” value [1] was “significant increase” and the “Effect of increasing the content of HA” value (hyaluronic acid (HA)) was 1473.32. The “increase in the content … (HA)” value (hyaluronic acid (HA)) was “significant increase”, the “Effect of increasing the content of Elastin in the fibroblasts” value (Elastin (ELN)) was 947.33 and the “increase in the content of Elastin” value (Elastin (ELN)) was “significant increase”.
`CCCCCCCCCCCCCCCC(=O)N[C@@H](Cc1ccc(C)cc1)C(=O)N[C@@H](C)C(=O)N[C@@H](CCCCN)C(=O)N[C@@H](Cc1c[nH]cn1)C(=O)NCC(=O)N[C@@H](CCCC[N+](C)(C)C)C(=O)O` [compound 415] (Palmitoyl-[Phe(4-Me)]AKHG[Lys(Me3)]-OH) was tested, and the “Effect of increasing the content of Collagen I in the fibroblasts” value [1] was 85.52, the “increase in the content … (Collagen I)” value [1] was “significant increase” and the “Effect of increasing the content of HA” value (hyaluronic acid (HA)) was 1570.27. For the same compound, the “increase in the content … (HA)” value (hyaluronic acid (HA)) was “significant increase”, the “Effect of increasing the content of Elastin in the fibroblasts” value (Elastin (ELN)) was 1010.76 and the “increase in the content of Elastin” value (Elastin (ELN)) was “significant increase”.
With `CCCCCCCCCCCCCCCC(=O)N[C@@H](Cc1ccc(OCC)cc1)C(=O)N[C@@H](C)C(=O)N[C@@H](CCCCN)C(=O)N[C@@H](Cc1c[nH]cn1)C(=O)NCC(=O)N[C@@H](CCCC[N+](C)(C)C)C(=O)O` [compound 417] (Palmitoyl-Y(Et)AKHG[Lys(Me3)]-OH) the “Effect of increasing the content of Collagen I in the fibroblasts” value [1] was 92.88, the “increase in the content … (Collagen I)” value [1] was “significant increase” and the “Effect of increasing the content of HA” value (hyaluronic acid (HA)) was 1938.51. The “increase in the content … (HA)” value (hyaluronic acid (HA)) was “significant increase”, the “Effect of increasing the content of Elastin in the fibroblasts” value (Elastin (ELN)) was 861.32 and the “increase in the content of Elastin” value (Elastin (ELN)) was “significant increase”.
